This is an account of results in patent US11680047B2, “Enhanced erythropoiesis and iron metabolism” (FibroGen, Inc., priority 2003, dated 2023).

Experiment [1] relates to E-selectin. The experiment can be described thus: IL-1β induced E-selectin expression in HUVEC. The note with it: 1 ng/ml IL-1β, 1 day. Format: cell-based, human. How it is done:
To investigate the effect of HIF prolyl hydroxylase inhibition on IL-1β induced E-selectin expression, HUVECs were stimulated with 1 ng/ml IL-1β in the absence or presence of various concentrations of compound B or compound C for 1 day. E-selectin expression was then measured.

The test system of experiment [2] is E-selectin. As to the kind of experiment: TNF-α induced E-selectin expression in HUVEC. The class given is cell-based, human. The note with it: 1 ng/ml TNF-α, various concentrations, 1 day. The source says:
Endothelial E-selectin belongs to the selectin family of cellular adhesion molecules mediating the initial attachment of leukocytes to vascular endothelial cells in inflammatory events. IL-1β, TNF-α, and lipopolysaccharides each induce the expression of E-selectin. (See, e.g., Bevilacqua et al. (1987) Proc Natl Acad Sci USA 84:9238-9242 and Bevilacqua and van Furth (1993) J Leukoc Biol 54:363-378.) To investigate the effect of HIF prolyl hydroxylase inhibition on TNF-α induced E-selectin expression, HUVECs were stimulated with 1 ng/ml TNF-α in the absence or presence of various concentrations of compound B or compound C for 1 day. E-selectin and VCAM expression were then measured.

The test system of experiment [3] is sproutin. The experiment can be described thus: Intestinal sproutin mRNA in rats of ACD Series 2 (microarray). Format: in vivo, rat. On the procedure:
At week 6 following administration of compound A in anemic animals (40 mg/kg, twice a week), microarray analysis was performed to examine expression of genes encoding proteins involved with iron transport and absorption in intestine. Microarray analysis was performed using methods described above, using The Rat Genome 230A array (Affymetirx), which represents all sequence in the Rat Unigene database build 99 (National Center for Biotechnology Information, Bethesda, Md.), including approximately 4,699 well-characterized rat genes and approximately 10,467 EST sequences and approximately 700 non-EST sequences.

Experiment [4] concerns rat model of ACD. As to the kind of experiment: Rat model of ACD (PG-PS), Experimental Series 2. The class given is in vivo. On the procedure: Female Lewis rats (approximately 150-200 gm) were injected with PG-PS (intra-peritoneal). Arthritis and anemia were allowed to develop for 28 days. Animals were administered compound A by oral gavage twice a week (Monday and Thursday) for six weeks, corresponding to days 28, 31, 35, 38, 42, 45, 49, 52, 56, 59, 63, 66, and 70 from PG-PS injection.
Whole blood was collected via the tail vein for CBC analysis on days 28, 42, 56, and 70. In addition, serum was collected on day 70 for iron binding analysis. CBC and iron binding analysis were performed by Quality Clinical Labs (Mountain View, Calif.).
Patients with anemia of chronic disease are clinically characterized by reduced plasma iron concentrations and transferrin saturation. The effect of the present compounds on serum iron and transferrin saturation in normal and anemic animals was determined. Using an animal model of anemia of chronic disease, anemia was induced in rats by IP injection of peptidoglycan-polysaccharide polymers, as described above. Arthritis and anemia were allowed to develop for 28 days. Animals were then treated with various concentrations of compound A, twice weekly, for 6 weeks. Serum iron levels and transferrin saturation were determined by Quality Clinical Labs.

The mark [5] stands for this setting: anemic rats, twice a week for six weeks.

Regarding `O=C(O)CNC(=O)c1ncc2cc(Oc3ccccc3)ccc2c1O` [Compound B, [(4-Hydroxy-7-phenoxy-isoquinoline-3-carbonyl)-amino]-acetic acid], the “inhibition of IL-1β induced E-selectin expression” value in experiment [1] is recorded as “dose-dependent inhibition of IL-1β induced E-selectin expression”. In addition, the “inhibition of TNF-α induced E-selectin expression” value in experiment [2] is “dose-dependent inhibition of TNF-α induced VCAM and E-selectin expression”.
As to `O=C(O)CNC(=O)c1nc(Cl)c2ccccc2c1O` [Compound A, [(1-Chloro-4-hydroxy-isoquinoline-3-carbonyl)-amino]-acetic acid], the “intestinal expression of sproutin” value in experiment [3] (anemic rats, 40 mg/kg twice a week, week 6) is “increased expression of both NRAMP2 and sproutin in intestine”. In addition, the “intestinal expression of mRNA for sproutin” value in experiment [3] (control rats) is given as “increased intestinal expression”. For the same compound, the serum iron levels entry in experiment [4] (anemic (PG-PS) and non-anemic control (sham) rats, twice weekly, 6 weeks) is given as “increased serum iron levels”. Besides, the hemoglobin levels result is listed as “hemoglobin levels increased” in experiment [4] (anemic rats, 10 mg/kg, 20 mg/kg or 40 mg/kg twice weekly) and “approximately 110 % of that in non-treated control animals” in experiment [4] (non-anemic rats, 40 mg/kg twice a week). In addition, the “red blood cell counts” value in experiment [4] (anemic rats, from 2 weeks, over the 6 week period) was “red blood cell counts were increased”. Moreover, the hematocrit levels entry in experiment [4] (anemic rats, oral gavage twice a week) was “increased hematocrit levels”; in experiment [4] (non-challenged (non-anemic) rats, 40 mg/kg twice a week), “greater than 110 % of that in non-challenged non-treated animals”. In experiment [4] (setting [5]), the “mean corpuscular hemoglobin levels” value is given as “reduction in the decrease in mean corpuscular hemoglobin levels”. Also, in experiment [4] (setting [5]), the mean corpuscular volume result was “reduction of the decrease in mean corpuscular volume”. The transferrin saturation result in experiment [4] (vs non-treated non-anemic and non-treated anemic rats, twice weekly, 6 weeks) is recorded as “increased transferrin saturation”.
